Laboratory results reported in patent publication US7214672B2, “Preventives/remedies for inflammatory airway diseases” (Nippon Shinyaku Co., Ltd., priority 2000, dated 2007).

System: Rat (male, female)
Experiment: Single dose toxicity study
Format: in vivo
Conditions: rats, administered only once
Procedure: Compound 1 or 2 of the present invention was administered to rats only once, and the lethal dose thereof was determined.

Row | Compound | toxicity (single dose)
1 | C[C@@H]1C[C@H]2[C@@H]3CCC4=CC(=O)C=C[C@]4(C)[C@@]3(F)[C@@H](O)C[C@]2(C)[C@@]1(OC(=O)C1CC1)C(=O)CO [Compound 1, 9-fluoro-11β,17,21-trihydroxy-16α-methyl-1,4-pregnadiene-3,20-dione 17-cyclopropanecarboxylate] | low toxicity
2 | C[C@@H]1C[C@H]2[C@@H]3CCC4=CC(=O)C=C[C@]4(C)[C@@]3(F)[C@@H](O)C[C@]2(C)[C@@]1(OC(=O)C1CC1)C(=O)COC(=O)C1CCCCC1 [Compound 2, 9-fluoro-11β,17,21-trihydroxy-16α-methyl-1,4-pregnadiene-3,20-dione 21-cyclohexanecarboxylate 17-cyclopropanecarboxylate] | low toxicity
